Data reported in article PMC5983544, “Muscarinic M5 receptors modulate ethanol seeking in rats” (Neuropsychopharmacology, 2018).

How the values were obtained:
[1] = tested on: ethanol-preferring (iP) rats; assay: Ethanol self-administration after bilateral microinjection into dorsolateral (DL) striatum; format: in vivo, rat; settings: intra-DL striatum
Excerpt: (§1) Male iP rats (n = 14) were trained to self-administer 10% (v/v) ethanol via lever presses under FR3 operant conditions for approximately 12 weeks, in the presence of a 1-s light conditioned stimulus (CS+) occurring when the ethanol solution was delivered and an olfactory cue (S+ cue; one drop of vanilla essence, placed directly below the ethanol-paired (active) lever), as previously described, followed by surgery and testing. […] Rats were then given 7 days of ethanol self-administration before receiving the alternate treatment in a counterbalanced manner. For full details refer to Supplementary material.
(§2) Microinjections were performed as previously described; for full details see Supplementary material.

[2] = tested on: ethanol-preferring (iP) rats; assay: Ethanol self-administration after bilateral microinjection into dorsomedial (DM) striatum; format: in vivo, rat; settings: intra-DM striatum
Excerpt: as §1, §2
There was a main effect of lever (F(1, 15) = 59.4, P < 0.0001) but no effect of treatment (F(1, 15) = 0.22, P = 0.65) (Fig. 5b).

| SMILES | responding for ethanol vs vehicle ([1]; 165 pmol/hemisphere, P = 0.82) | responding for ethanol vs vehicle ([2]; 165 pmol/hemisphere, P = 0.99) | ethanol responding vs vehicle ([1]; 5.53 nmol/side, P = 0.0003) | responding for water vs vehicle ([1]; 5.53 nmol/side, P = 0.96) | ethanol responding vs vehicle ([2]; 5.53 nmol/hemisphere) |
| --- | --- | --- | --- | --- | --- |
| CCN(Cc1ccccc1C(F)(F)F)C(=O)C1CCN(S(=O)(=O)c2ccc3[nH]ncc3c2)CC1 [ML380, 1-((1H-indazol-5-yl)sulfoneyl)-N-ethyl-N-(2-(trifluoromethyl)benzyl)piperidine-4-carboxamide] | no effect | no effect | – | – | – |
| c1cnc2cc3c(cc2n1)[C@@H]1CNC[C@H]3C1 [varenicline] | – | – | significantly reduced ethanol responding | no difference | did not affect ethanol responding |
